Laboratory results: US6107275A, “Cyclic Antiplatelet peptides with pseudo-bond” (Merrell Pharmaceuticals Inc., priority 1997, dated 2000)

What was measured:
[1] = target: Human platelet rich plasma (PRP) (Homo sapiens, UniProt P05106+P08514); settings: read-out: Platelet Aggregation ADP Induced IC50, ADP (1 μM)
Method: Platelet Aggregation In Vitro
Human platelet rich plasma (PRP) was prepared by centrifugation at 200×g for 10 min. at room temperature. Platelet poor plasma (PPP) was prepared by centrifugation at 2000×g for 10 min. PRP was exposed only to plastic laboratory ware. All experiments were completed within 3 hr of blood collection. Platelet aggregation was measured photometrically using a Chrono-log dual channel aggregometer (Chrono-log Corp., Haverstown, Pa. 19083). One hundred percent light transmission was defined with autologus PPP. Percent maximal change in light transmission was determined from PRP following addition of ADP (1 μM) or thrombin. […] MDL 102,530 was incubated with PRP (0.45 ml) for 30 sec prior to the addition of ADP or thrombin. Aggregation was measured in a total volume of 0.5 ml. Inhibitory responses were expressed s percent inhibition when compared to a control value. The concentration resulting in 50% inhibition of aggregation (IC50) was calculated by simple linear regression.

Purified GPIIbIIIa = target: T1, Purified GPIIbIIIa (Homo sapiens, UniProt P05106+P08514); assay: GPIIbIIIa (fibrinogen) enzyme-linked immunoassay (ELISA); settings: purified human platelet GPIIbIIIa binding to immobilized fibrinogen; read-out: GPIIbIIIa (Fibrogen ELISA IC50)
T1 construct: GPIIbIIIa was purified from human platelets; from tissue; host or cells: human platelets
Method: GPIIbIIIa Enzyme-Linked Immunoassay
Low solubility fibrinogen, prepared as described by Lipinska et al., J. Lab. Clin. Med., 84, 509-516 (1974) (human, KABI) was immobolized at 5 μg/well on Immunolon 2-96 well plates (inculated overnight at 4° to bind to the wells). The wells were blocked with 0.5% bovine serum albumin in buffer A ([…] Tris-HCl, pH 7.5, 2 mM CaCl2, 120 mM […], and 0.02% NaN3) for two hours at room temperature. All subsequent steps were carried out at room temperature. The wells were washed three times with buffer A plus 0.5% Tween 20 (BioRad). Purified GPIIbIIIa (2 μg/well) plus synthetic peptides supplements at the indicated concentrations were conincubated for 90 to 120 min with immobilized fibrinogen. The wells were washed as above, then the anti-GPIIbIIIa monoclonal antibody, CD41a, was added to each well and incubated for 60 min. After another three washes, goat anti-mouse horseradish peroxidase conjugate was added to each well (60 min). The wells were washed three times with buffer A plus detergent, followed by two washes with buffer A minus detergent. The peroxidase substrate, 3,3',5,5'-tetramethylbenzidine (Kirkegaard and Perry Laboratories, Inc.) was added to the wells for color development. The reaction was stopped with 0.3N H2 SO4, and absorbances were measured at 450 mn using a microplate reader (Multiscan II, Flow-Titertek).
GPIIbIIIa was purified from human platelets as described by Fitzgerald, et al., Anal. Biochem., 151, 169-177 (1985), except that the final gel purification step was performed with an HW55 size exclusion column (Waters, Advanced Protein Purification System), instead of Sephacryl S-300. The protein, greater than 90% pure as assessed by SDS polyacrylamide gel electrophoresis, was stored at -80° C. in small aliquots.

human platelets = human platelets (Homo sapiens, UniProt P05106+P08514); assay: 125I-Fibrinogen binding to platelets; settings: 0.1 μM 125I-fibrinogen, thrombin or activator peptide stimulus
Method: Preparation of Human Platelets
Human blood was collected by venipuncture in tubes containing one-tenth volume of acid-citrate-dextrose as an anticoagulant. Platelet-rich plasma was prepared by centrifugation of the blood for 10 min at 500 g at room temperature. The platelet-rich plasma was decanted and one-tenth volume of acid-citrate-dextrose was added followed by centrifugation at 1000 g at room temperature for 10 min to sediment the platelets. The platelets were suspended in two ml modified Tyrode's buffer (2 M NaCl, 0.5 M dextrose, 0.2 M NaHCO3, 0.1 M KCl, 0.1 M MgCl2, 0.1 M NaH2 PO4 and 0.1 M HEPES, pH 7.3) containing 0.35% bovine serum albumin and then filtered on a 50 ml column of Sepharose 2B (Pharmacia) equilibrated with Tyrode's buffer. Finally, the platelets were counted in an automated hematology analyzer.
Human low solubility fibrinogen (Kabi) was prepared as described previously (Lipinska et al., 1974). For ^125 I labeling, fibrinogen (1 mg) was incubated with three Iodo-Beads (Pierce Chemical Co.) and 1 mCi of Na^125 I for 15 min after with ^125 I-fibrinogen was separated from free radioactivity by filtration through a PD-10 column (Pharmacia). The specific activity was approximately 1-5×10^17 CPM/mol fibrinogen.
Binding of fibrinogen to human platelets was performed as described by Plow and Ginsberg (1981). Binding assays contained, in a volume of 0.2 ml, 1-2×10^7 platelets, 0.1 μM ^125 I-fibrinogen, 2 mM CaCl2 and 0.1 U/ml thrombin or various concentrations of activator peptides as a stimulus. Incubations were carried out in 1.2 ml Eppendorf microcentrifuge tubes at room temperature for 30 min and then duplicate 75 μl aliquots were layered onto 0.4 ml of 20% sucrose in Tyrode's buffer containing 1% bovine serum albumin and platelets were sedimented by centrifugation at 10,000 g for 5 min in a Beckman microcentrifuge. Tips of the centrifuge tubes were amputated and bound ^125 I-fibrinogen was measured in a gamma counter (LKB/Pharmacia). Nonspecifically bound radioactivity was determined in incubations in which activators were excluded and these values were 1-5% of those obtained with thrombin activation.

T1 sequence (P08514 32-887 limits assumed): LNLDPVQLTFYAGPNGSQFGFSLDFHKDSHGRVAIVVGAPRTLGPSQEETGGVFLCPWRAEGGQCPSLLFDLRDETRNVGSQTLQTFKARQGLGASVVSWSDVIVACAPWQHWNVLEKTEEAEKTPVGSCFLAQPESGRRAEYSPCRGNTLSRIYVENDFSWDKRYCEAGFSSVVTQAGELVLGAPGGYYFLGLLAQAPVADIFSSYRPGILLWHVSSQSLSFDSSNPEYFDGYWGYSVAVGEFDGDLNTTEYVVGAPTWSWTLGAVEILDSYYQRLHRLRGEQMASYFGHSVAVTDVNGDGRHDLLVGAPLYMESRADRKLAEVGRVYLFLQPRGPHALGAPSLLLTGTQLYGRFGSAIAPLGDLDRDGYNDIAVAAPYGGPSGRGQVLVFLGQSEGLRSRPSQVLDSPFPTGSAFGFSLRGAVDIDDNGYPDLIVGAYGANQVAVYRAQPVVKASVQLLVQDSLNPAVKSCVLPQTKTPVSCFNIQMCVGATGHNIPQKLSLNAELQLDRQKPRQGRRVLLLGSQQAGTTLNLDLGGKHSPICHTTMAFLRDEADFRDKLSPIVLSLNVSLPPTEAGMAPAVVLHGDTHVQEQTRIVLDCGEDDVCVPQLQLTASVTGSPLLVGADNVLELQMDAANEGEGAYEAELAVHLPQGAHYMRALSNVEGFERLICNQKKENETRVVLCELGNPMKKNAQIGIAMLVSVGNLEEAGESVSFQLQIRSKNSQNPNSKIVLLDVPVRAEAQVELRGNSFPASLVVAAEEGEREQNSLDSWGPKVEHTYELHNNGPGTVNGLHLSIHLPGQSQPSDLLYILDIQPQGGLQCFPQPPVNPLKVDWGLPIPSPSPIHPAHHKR
T1 sequence (P08514 891-1039 partner limits assumed): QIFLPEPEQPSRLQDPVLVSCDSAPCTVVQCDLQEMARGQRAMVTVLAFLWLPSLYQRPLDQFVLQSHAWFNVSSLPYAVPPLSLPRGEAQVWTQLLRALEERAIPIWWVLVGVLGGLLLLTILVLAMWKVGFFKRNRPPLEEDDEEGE
T1 sequence (P05106 27-788): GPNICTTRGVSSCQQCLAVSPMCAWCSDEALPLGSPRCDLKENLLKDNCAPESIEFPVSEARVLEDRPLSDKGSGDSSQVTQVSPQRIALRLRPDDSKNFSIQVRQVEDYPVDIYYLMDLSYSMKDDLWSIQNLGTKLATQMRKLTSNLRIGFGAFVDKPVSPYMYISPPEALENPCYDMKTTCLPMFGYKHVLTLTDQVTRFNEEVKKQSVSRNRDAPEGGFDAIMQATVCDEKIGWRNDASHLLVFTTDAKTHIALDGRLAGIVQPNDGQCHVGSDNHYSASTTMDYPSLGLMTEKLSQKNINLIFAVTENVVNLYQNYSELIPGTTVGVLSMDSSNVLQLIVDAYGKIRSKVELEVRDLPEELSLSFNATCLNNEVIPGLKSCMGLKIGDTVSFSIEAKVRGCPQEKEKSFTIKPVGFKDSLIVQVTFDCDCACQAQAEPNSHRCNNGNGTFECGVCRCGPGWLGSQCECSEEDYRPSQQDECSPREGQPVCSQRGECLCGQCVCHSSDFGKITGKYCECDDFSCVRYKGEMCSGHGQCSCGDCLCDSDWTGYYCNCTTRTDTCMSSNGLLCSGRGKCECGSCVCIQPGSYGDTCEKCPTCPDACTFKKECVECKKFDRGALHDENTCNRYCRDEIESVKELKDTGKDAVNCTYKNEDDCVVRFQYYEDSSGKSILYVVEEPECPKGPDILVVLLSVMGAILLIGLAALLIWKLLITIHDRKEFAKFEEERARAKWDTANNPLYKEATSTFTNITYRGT
human platelets, sequence (P08514 32-1039): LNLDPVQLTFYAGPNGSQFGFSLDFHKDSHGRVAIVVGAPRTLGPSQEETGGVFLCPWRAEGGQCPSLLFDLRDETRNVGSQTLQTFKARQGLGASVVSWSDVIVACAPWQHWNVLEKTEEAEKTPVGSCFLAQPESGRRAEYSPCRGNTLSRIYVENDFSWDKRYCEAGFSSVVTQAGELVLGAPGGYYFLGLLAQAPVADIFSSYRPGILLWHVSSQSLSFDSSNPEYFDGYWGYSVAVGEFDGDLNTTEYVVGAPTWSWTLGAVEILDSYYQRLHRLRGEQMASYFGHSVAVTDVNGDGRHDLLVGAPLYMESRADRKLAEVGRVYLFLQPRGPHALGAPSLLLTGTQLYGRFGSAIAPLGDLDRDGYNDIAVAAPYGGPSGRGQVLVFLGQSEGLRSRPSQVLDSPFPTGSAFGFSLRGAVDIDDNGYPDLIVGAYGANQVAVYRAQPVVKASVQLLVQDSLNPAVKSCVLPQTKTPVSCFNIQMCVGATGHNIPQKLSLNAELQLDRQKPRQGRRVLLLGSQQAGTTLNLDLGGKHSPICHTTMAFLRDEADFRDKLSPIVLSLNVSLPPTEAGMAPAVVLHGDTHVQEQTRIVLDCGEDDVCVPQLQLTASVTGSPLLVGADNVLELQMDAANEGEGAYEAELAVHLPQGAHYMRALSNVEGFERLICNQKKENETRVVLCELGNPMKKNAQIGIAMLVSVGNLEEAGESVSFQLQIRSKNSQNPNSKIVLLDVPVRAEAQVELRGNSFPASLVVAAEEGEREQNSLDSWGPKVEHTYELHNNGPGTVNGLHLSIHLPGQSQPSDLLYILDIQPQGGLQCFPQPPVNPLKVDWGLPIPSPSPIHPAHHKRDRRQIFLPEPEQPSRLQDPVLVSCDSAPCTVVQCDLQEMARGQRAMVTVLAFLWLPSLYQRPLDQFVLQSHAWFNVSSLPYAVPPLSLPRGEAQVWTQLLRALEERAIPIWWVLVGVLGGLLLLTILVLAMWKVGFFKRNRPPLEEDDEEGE
human platelets, sequence (P05106 27-788): as the sequence (P05106 27-788) above
Human platelet rich plasma (PRP), sequence (P08514 32-1039): as the sequence (P08514 32-1039) above
Human platelet rich plasma (PRP), sequence (P05106 27-788): as the sequence (P05106 27-788) above

| SMILES | IC50 [1] [µM] | IC50 (Purified GPIIbIIIa) [µM] | IC50 (human platelets) [µM] |
| --- | --- | --- | --- |
| C[C@H]1CN(C(=O)CCN)[C@@H](CCCNC(=N)N)C(=O)NCC(=O)N[C@@H](CC(=O)O)C(=O)N[C@H](C(=O)NCc2ccccc2)CCC(=O)N1 [III] | 49.2 | 3 | 2.4 |
| C[C@H]1CN(CCCC(=O)O)[C@@H](CCCNC(=N)N)C(=O)NCC(=O)N[C@@H](CC(=O)O)C(=O)N[C@H](C(=O)NCc2ccccc2)CCC(=O)N1 [II] | – | 0.54 | 1.2 |
| C[C@H]1CN(CCCc2ccccc2)[C@@H](CCCNC(=N)N)C(=O)NCC(=O)N[C@@H](CC(=O)O)C(=O)N[C@H](C(=O)NCc2ccccc2)CCC(=O)N1 [IV] | 6.4 | 0.3 | 0.27 |
| C[C@H]1CN[C@@H](CCCNC(=N)N)C(=O)NCC(=O)N[C@@H](CC(=O)O)C(=O)N[C@H](C(=O)NCc2ccccc2)CCC(=O)N1 [I] | – | 0.2 | 2.4 |
